Read-outs that look alike come from different tables or passages of the source.

Assay [1] concerns the target T1, β-lactoglobulin I56F/L39A/M107W (FAW) (Bos taurus, UniProt P02754, I18S/I72F/L17A/L55A/M123W). To be noted: 50 mM phosphate buffer pH 7.5.
The target in assay [2] is T2, β-lactoglobulin I56F/L39A/M107F (FAF) (Bos taurus, UniProt P02754, I18S/I72F/L17A/L55A/M123F). To be noted: for N, stoichiometry: one set of binding sites model.
Another assay deals with natural β-lactoglobulin (Bos taurus, UniProt P02754).
Sequence of natural β-lactoglobulin (P02754 17-178): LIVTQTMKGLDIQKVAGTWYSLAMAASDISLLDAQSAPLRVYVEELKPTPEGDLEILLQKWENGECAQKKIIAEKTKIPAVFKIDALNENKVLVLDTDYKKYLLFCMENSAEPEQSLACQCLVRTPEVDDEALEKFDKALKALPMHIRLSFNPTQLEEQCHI
Assay [3] concerns the target T1, β-lactoglobulin I56F/L39A/M107W (FAW).
In assay [4] the target is T2, β-lactoglobulin I56F/L39A/M107F (FAF). To be noted: 50 mM phosphate buffer pH 7.5.

T2 sequence (P02754 17-178 L17A/I18S/L55A/I72F/M123F): as the sequence (P02754 17-178) above, with L1A, I2S, L39A, I56F, M107F counted along it
T1 sequence (P02754 17-178 L17A/I18S/L55A/I72F/M123W): as the sequence (P02754 17-178) above, with L1A, I2S, L39A, I56F, M107W counted along it

For `CNCCCN1c2ccccc2CCc2ccccc21` [DSM, desipramine], the “stoichiometry (DSM molecule per BLG chain), CD” value in assay [1] and in assay [4] was 1 in each case. Also, the “N, stoichiometry” value in assay [2] (pH 7.5, 25 mM HEPES, 150 mM NaCl, 293 K) was found to be 0.94 ± 0.06; in assay [2] (pH 8.5, Tris buffer, 293 K) it was 1.21 ± 0.08; on natural β-lactoglobulin (Natural BLG, pH 7.5, 25 mM HEPES, 150 mM NaCl, 293 K, one set of binding sites model), 0.91 ± 0.08; in assay [3] (pH 7.5, 25 mM HEPES, 150 mM NaCl, 293 K, one set of binding sites model), 0.92 ± 0.05. Besides, the TΔS a in assay [2] (pH 7.5, 293 K) came to 4.2192 kcal/mol; in assay [2] (pH 8.5, Tris buffer, 293 K), 5.3033 kcal/mol; at natural β-lactoglobulin (Natural BLG, pH 7.5, 293 K), 4.395 kcal/mol; in assay [3] (pH 7.5, 293 K) it was 4.2485 kcal/mol. Besides, the “ΔH a, enthalpy change” value is -1.634 ± 0.133 kcal/mol in assay [2] (pH 7.5, 293 K); -1.298 ± 0.145 kcal/mol at natural β-lactoglobulin (Natural BLG, pH 7.5, 293 K); -1.792 ± 0.137 kcal/mol in assay [3] (pH 7.5, 293 K). The “ΔS a, entropy change” value in assay [2] (pH 7.5, 293 K) stood at 14.4 cal mol^−1 K^−1; in assay [2] (pH 8.5, Tris buffer, 293 K), 18.1 cal mol^−1 K^−1; at natural β-lactoglobulin (Natural BLG, pH 7.5, 293 K) it was 15.0 cal mol^−1 K^−1; in assay [3] (pH 7.5, 293 K), 14.5 cal mol^−1 K^−1. Further, the “outcome of ITC titration at pH 8.5” value on natural β-lactoglobulin (native protein, Tris buffer pH 8.5) is given as “insufficient enthalpy change for the calculation of binding parameters”; in assay [3] (Tris buffer pH 8.5), “insufficient enthalpy change for the calculation of binding parameters”.

Source of the values: paper PMC9067113 (IUCrJ, 2022).
